The values below come from ChEMBL document CHEMBL3763135, “Synthesis and evaluation of thiophene-based guanylhydrazones (iminoguanidines) efficient against panel of voriconazole-resistant fungal isolates” (Bioorg Med Chem, 2016).

The structures appear in SMILES notation. Calls of active or inactive are those of the source. No cut-off for these calls is given here.

Data set [1] can be described thus: Hemolytic effect in sheep RBC assessed as release of hemoglobin at 25 ug/ml after 1 hr. In kind it is ADME, cell-based, Ovis aries, Erythrocyte. The note with it: sheep red blood cells, read-out: Activity.
Data set [2] relates to Candida albicans. Nature of the data set: Induction of DNA intercalation with Candida albicans genomic DNA at 25 ug/ml after 12 hrs by ethidium bromide staining based gel electrophoresis method.
Data set [3] relates to Candida parapsilosis. Nature of the data set: Antibiofilm activity against Candida parapsilosis C27 assessed as disruption of preformed biofilm after 24 hrs by concanavalin A-FITC-staining based fluorescence microscopic analysis. In kind it is functional.
For data set [4], the system named is Pichia kudriavzevii. Nature of the data set: Antifungal activity against Candida krusei ATCC 34135 by broth dilution method. The format is functional. In general terms: In broth dilution the organism is exposed to a series of concentrations in liquid medium.
Another data set concerns Microsporum canis. Nature of the data set: Antifungal activity against Microsporum canis DMT2 by broth dilution method. The format is functional.
Data set [5] concerns Candida parapsilosis. Nature of the data set: Antifungal activity against Candida parapsilosis C27 by broth dilution method. In kind it is functional. The note with it: Lodderomyces parapsilosis.
For data set [6], the system named is Candida albicans. Nature of the data set: Antifungal activity against Candida albicans ATCC 10231 by broth dilution method. In kind it is functional.
The next data set deals with MRC5. Nature of the data set: Cytotoxicity against human MRC5 cells after 48 hrs by MTT assay. In kind it is cell-based. The note with it: MRC5, 48 h. On the technique in general: Tetrazolium dyes change colour on reduction, which living cells bring about.
Data set [7] relates to Candida albicans. Nature of the data set: Antibiofilm activity against Candida albicans ATCC 10231 assessed as disruption of preformed biofilm after 24 hrs by concanavalin A-FITC-staining based fluorescence microscopic analysis. The format is functional.
The test system of another data set is Fusarium oxysporum. Nature of the data set: Antifungal activity against Fusarium oxysporum AB18 by broth dilution method. In kind it is functional.
Data set [8] relates to Candida albicans. Nature of the data set: Antifungal activity against Candida albicans CA5 by broth dilution method. The format is functional.
For data set [9], the system named is Candida albicans. Nature of the data set: Antibiofilm activity against Candida albicans assessed as inhibition of Spider medium-induced hyphae formation at sub-MIC after 24 hrs by propidium iodide and FITC-conjugated concanavaline A staining based fluorescence microscopy. The format is functional, organism-based.
For data set [10], the system named is Pichia kudriavzevii. Nature of the data set: Antibiofilm activity against Pichia kudriavzevii ATCC 34135 assessed as disruption of preformed biofilm after 24 hrs by concanavalin A-FITC-staining based fluorescence microscopic analysis. In kind it is functional.
The test system of a further data set is Aspergillus fumigatus. Nature of the data set: Antifungal activity against Aspergillus fumigatus ATCC 13073 by broth dilution method. In kind it is functional.
Data set [11] deals with Trichophyton mentagrophytes. Nature of the data set: Antifungal activity against Trichophyton mentagrophytes DMT4 by broth dilution method. The format is functional.
A short description of data set [12]: Selectivity index, ratio of IC50 for human MRC5 cell to MIC for Candida albicans CA5.
Data set [13] in a line: Induction of membrane damage in PC/PS/E liposome assessed as calcein release at MIC after 30 mins by fluorescence-based liposome leakage assay. In kind it is functional.
Data set [14] is described as follows: Hemolytic effect in sheep RBC assessed as release of hemoglobin at cytotoxic IC50 after 1 hr. The note with it: sheep red blood cells, read-out: Activity. In kind it is cell-based, Ovis aries, Erythrocyte.
Data set [15] is described as follows: Hemolytic effect in sheep RBC assessed as release of hemoglobin at MIC after 1 hr. The format is ADME, cell-based, Ovis aries, Erythrocyte. The note with it: sheep red blood cells, read-out: Activity.

The MIC is the lowest concentration found to suppress growth. Lower therefore signals inhibition by little substance. What is called IC50 is the concentration that gives 50% inhibition. A higher IC50 goes with lower potency.

On to `Cl.Cl.N=C(N)N/N=C/c1ccc(-c2ccncc2)s1`, for which, in data set [1], the hemolysis at 1 h, 25 ug/ml amounted to 20%. For the same compound, the result with Candida albicans [2] and in the data set on Candida albicans [9] was Active. The MBEC in the data set on Candida parapsilosis [3] is greater than 1000 µg/mL; in the data set on Candida albicans [7], 1000 µg/mL; in the data set with Pichia kudriavzevii [10] it was greater than 1000 µg/mL. The MIC with Pichia kudriavzevii [4] is greater than 250 µg/mL; in the data set on Microsporum canis it was 125 µg/mL; with Candida parapsilosis [5], greater than 250 µg/mL; against Candida albicans [6] it was 15.6 µg/mL; with Fusarium oxysporum it was greater than 250 µg/mL; in the data set with Candida albicans [8], 125 µg/mL. Also, the MIC against Aspergillus fumigatus was determined as 250 µg/mL; in data set [11], 25 µg/mL. The compound further displayed an IC50 with MRC5 of 25 µg/mL.

In the case of `Cl.Cl.N=C(N)N/N=C/c1ccc(-c2ccc(-c3ccc(/C=N/NC(=N)N)cc3)s2)cc1`, in the data set on Candida albicans [2], the outcome was Active. For the same compound, the “Selectivity Index” value in [12] was found to be 20. Besides, the MBEC in the data set on Candida parapsilosis [3] amounted to 1000 µg/mL; in the data set on Candida albicans [7], 250 µg/mL; in the data set with Pichia kudriavzevii [10], 1000 µg/mL. The MIC in the data set on Pichia kudriavzevii [4] was 50 µg/mL; against Microsporum canis, 0.25 µg/mL; in the data set on Candida parapsilosis [5], 50 µg/mL; against Candida albicans [6], 3.9 µg/mL; with Fusarium oxysporum, greater than 250 µg/mL; against Candida albicans [8], 0.25 µg/mL. The MIC against Aspergillus fumigatus amounted to 25 µg/mL; in data set [11], 0.25 µg/mL. The Activity in data set [13] is 7%. The hemolysis at 1 h in data set [14] and in [15] was no more than 10% in each case. In the data set on MRC5, inhibition was half-maximal at 5 µg/mL (IC50). The result with Candida albicans [9] was inactive.
